Measurements taken from patent US20260374754A1, “N-((ISOQUINOLIN-6-YL)METHYL)-1H-PYRAZOLE-4-CARBOXAMIDE DERIVATIVES AS PLASMA KALLIKREIN INHIBITORS FOR THE TREATMENT OF HEREDITARY ANGIODEMA” (Takeda Pharmaceutical Company Limited, priority 2022, published 2026).

Each compound was assayed against human activated kallikrein enzyme (Homo sapiens, UniProt P03952) (assay: Inhibition of human activated plasma kallikrein, fluorogenic PFR-AMC substrate, 500 pM enzyme format). Settings: 500 pM activated kallikrein; 300 μM PFR-AMC; 30 min preincubation; 10 min room temperature; pH 7.5; read-out: Primary Dose Response Assay: Average EC50.
Format: biochemical
How it was run: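 Using fluorogenic PFR-AMC at 300 μM, cleavage by 500 pM human activated kallikrein ran 10 min at room temperature, read at 460 nm emission (380 nm excitation). Enzyme and compounds were first preincubated 30 min in 20 mM Tris pH 7.5, 150 mM NaCl, 1 mM EDTA, 0.1% PEG-400, 0.1% Triton X-100.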

Sequence of human activated kallikrein enzyme (P03952 391-638 limits assumed): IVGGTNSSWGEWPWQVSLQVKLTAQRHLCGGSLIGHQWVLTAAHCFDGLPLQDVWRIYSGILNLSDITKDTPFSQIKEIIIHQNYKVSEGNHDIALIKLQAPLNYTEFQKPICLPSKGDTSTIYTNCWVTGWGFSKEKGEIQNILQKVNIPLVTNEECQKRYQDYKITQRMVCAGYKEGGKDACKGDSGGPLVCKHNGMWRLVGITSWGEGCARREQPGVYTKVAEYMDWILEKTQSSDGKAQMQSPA
Sequence of human activated kallikrein enzyme (P03952 20-390 partner limits assumed): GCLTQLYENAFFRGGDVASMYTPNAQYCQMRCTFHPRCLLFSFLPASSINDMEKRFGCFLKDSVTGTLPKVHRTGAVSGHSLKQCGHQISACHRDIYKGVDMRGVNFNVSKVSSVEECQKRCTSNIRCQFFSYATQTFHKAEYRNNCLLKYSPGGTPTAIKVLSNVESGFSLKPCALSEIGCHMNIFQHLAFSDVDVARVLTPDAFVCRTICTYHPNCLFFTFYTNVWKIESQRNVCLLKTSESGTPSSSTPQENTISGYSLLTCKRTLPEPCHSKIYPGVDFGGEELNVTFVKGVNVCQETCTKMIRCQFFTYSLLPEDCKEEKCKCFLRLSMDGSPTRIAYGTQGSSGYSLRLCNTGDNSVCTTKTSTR

EC50 [µM] | SMILES
0.001 to 0.01 | Cc1cc2c(N)nccc2c(C)c1CNC(=O)c1cnn(Cc2cc3cc(C(F)(F)F)ccc3s2)c1 [Example 66, N-((1-amino-5,7-dimethylisoquinolin-6-yl)methyl)-1-((5-(trifluoromethyl)benzo[b]thiophen-2-yl)methyl)-1H-pyrazole-4-carboxamide]
0.001 to 0.01 | COc1nc2ccccc2cc1Cn1cc(C(=O)NCc2c(C)cc3c(N)nccc3c2C)cn1 [Example 67, N-((1-amino-5,7-dimethylisoquinolin-6-yl)methyl)-1-((2-methoxyquinolin-3-yl)methyl)-1H-pyrazole-4-carboxamide]
0.01 to 0.1 | Cc1cc2c(N)nccc2c(C)c1CNC(=O)c1cnn(Cc2nc3ccccc3n2C(F)F)c1 [Example 68, N-((1-amino-5,7-dimethylisoquinolin-6-yl)methyl)-1-((1-(difluoromethyl)-1H-benzo[d]imidazol-2-yl)methyl)-1H-pyrazole-4-carboxamide]
0.001 to 0.01 | Cc1cc2c(N)nccc2c(C)c1CNC(=O)c1cnn(Cc2ccc3cc(Br)ccc3n2)c1 [Example 69, N-((1-amino-5,7-dimethylisoquinolin-6-yl)methyl)-1-((6-bromoquinolin-2-yl)methyl)-1H-pyrazole-4-carboxamide]
0.1 to 1 | Cc1cc2c(N)nccc2c(C)c1CNC(=O)c1cnn(Cc2cncnc2)c1 [Example 77, N-((1-amino-5,7-dimethylisoquinolin-6-yl)methyl)-1-(pyrimidin-5-ylmethyl)-1H-pyrazole-4-carboxamide]
0.1 to 1 | Cc1cc2c(N)nccc2c(C)c1CNC(=O)c1cnn(Cc2ccccn2)c1 [Example 78, N-((1-amino-5,7-dimethylisoquinolin-6-yl)methyl)-1-(pyridin-2-ylmethyl)-1H-pyrazole-4-carboxamide]
0.001 to 0.01 | Cc1cc2c(N)nccc2c(C)c1CNC(=O)c1cnn(Cc2ccc3nccnc3c2)c1 [Example 79, N-((1-amino-5,7-dimethylisoquinolin-6-yl)methyl)-1-(quinoxalin-6-ylmethyl)-1H-pyrazole-4-carboxamide]

The next lines start with the compound.

SMILES | EC50 [µM]
Cc1cc2c(N)nccc2c(C)c1CNC(=O)c1cnn(Cc2cnc3ccc(Br)cc3c2)c1 [Example 70, N-((1-amino-5,7-dimethylisoquinolin-6-yl)methyl)-1-((6-bromoquinolin-3-yl)methyl)-1H-pyrazole-4-carboxamide] | < 0.001
Cc1cc2c(N)nccc2c(C)c1CNC(=O)c1cnn(Cc2nc3ccccc3n2C(C)C)c1 [Example 71, N-((1-amino-5,7-dimethylisoquinolin-6-yl)methyl)-1-((1-isopropyl-1H-benzo[d]imidazol-2-yl)methyl)-1H-pyrazole-4-carboxamide] | 0.1 to 1
Cc1cc2c(N)nccc2c(C)c1CNC(=O)c1cnn(Cc2cnc3c(C)cccc3c2)c1 [Example 72, N-((1-amino-5,7-dimethylisoquinolin-6-yl)methyl)-1-((8-methylquinolin-3-yl)methyl)-1H-pyrazole-4-carboxamide] | < 0.001
Cc1cc2c(N)nccc2c(C)c1CNC(=O)c1cnn(Cc2cc3cccc(C)c3nc2Cl)c1 [Example 73, N-((1-amino-5,7-dimethylisoquinolin-6-yl)methyl)-1-((2-chloro-8-methylquinolin-3-yl)methyl)-1H-pyrazole-4-carboxamide] | 0.001 to 0.01
Cc1cc2c(N)nccc2c(C)c1CNC(=O)c1cnn(Cc2ccc3cnccc3c2)c1 [Example 74, N-((1-amino-5,7-dimethylisoquinolin-6-yl)methyl)-1-(isoquinolin-6-ylmethyl)-1H-pyrazole-4-carboxamide] | 0.001 to 0.01
Cc1cc2c(N)nccc2c(C)c1CNC(=O)c1cnn(Cc2nc3ccccc3n2C)c1 [Example 75, N-((1-amino-5,7-dimethylisoquinolin-6-yl)methyl)-1-((1-methyl-1H-benzo[d]imidazol-2-yl)methyl)-1H-pyrazole-4-carboxamide] | 0.1 to 1
Cc1cc2c(N)nccc2c(C)c1CNC(=O)c1cnn(Cc2nc3ccccc3s2)c1 [Example 76, N-((1-amino-5,7-dimethylisoquinolin-6-yl)methyl)-1-(benzo[d]thiazol-2-ylmethyl)-1H-pyrazole-4-carboxamide] | 0.01 to 0.1
